According to PubChem BioAssay (NCI):
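How tested: cells in 96-well plates exposed to compound for 48 hours at five concentrations. GI50: concentration for 50% inhibition of growth. TGI marks complete inhibition of growth.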

Tests used:
Assay in all cases: NCI anticancer screen, dose series, 48 h
[1] = test system: DMS 273 small cell lung
[2] = test system: HCT-116 colon
[3] = test system: HL-60(TB) leukemia
[4] = test system: NCI-H460 lung
[5] = test system: SK-MEL-2 melanoma
[6] = test system: SNB-78 CNS
[7] = test system: HT29 colon
[8] = test system: BT-549 breast
[9] = test system: DU-145 prostate
[10] = test system: MDA-MB-231 breast

Compound | TGI [1] | TGI [2] | TGI [3] | TGI [4] | TGI [5] | TGI [6] | TGI [7] | GI50 [8] | TGI [8] | GI50 [9] | TGI [9] | GI50 [2] | GI50 [3] | GI50 [7] | GI50 [10] | TGI [10] | GI50 [4] | GI50 [5]
COC(=O)C1=CC(=O)[C@@H]2CCCC[C@H]12 | > 100 µM | > 100 µM | > 100 µM | > 100 µM | > 100 µM | > 100 µM |  |  |  |  |  |  |  |  |  |  |  | 
CSC1=Nc2ccccc2N=C(c2ccccc2)C1 | > 100 µM | 45.6 µM | 34.9 µM | 46.8 µM | > 100 µM | > 100 µM | > 100 µM |  |  |  |  |  |  |  |  |  |  | 
COc1ccc2nc3ccccc3c(NCCN(CCCl)CCCl)c2c1 |  | 2.08 µM | 1.1 µM |  |  | 4.53 µM | 61.1 µM |  |  |  |  |  |  |  |  |  |  | 
COC(=O)C1=CCC2c3[nH]c4ccccc4c3CCN2C1 (stereo not drawn) | > 354 µM | > 354 µM | > 354 µM | > 354 µM | > 354 µM |  | > 354 µM |  |  |  |  |  |  |  |  |  |  | 
CC1=C(C(=O)Nc2ccc(C)cc2)C(c2cccc([N+](=O)[O-])c2)C(C(=O)Nc2ccc(C)cc2)=C(C)N1 | > 100 µM | > 100 µM | 39.4 µM | 60.8 µM | 54.8 µM | > 100 µM | 49.4 µM |  |  |  |  |  |  |  |  |  |  | 
CCOC(=O)C(=O)C(C#N)c1ccc(Cl)cc1 (stereo not drawn) | > 100 µM | > 100 µM | > 100 µM | > 100 µM | > 100 µM | > 100 µM | > 100 µM |  |  |  |  |  |  |  |  |  |  | 
CC1=CC[C@@H](C(C)(C)O)C[C@@H]1O |  | > 5000 µM | > 5000 µM | > 5000 µM | > 5000 µM | > 5000 µM | > 5000 µM |  |  |  |  |  |  |  |  |  |  | 
N#C/C(=C\c1ccc[nH]1)C(=O)c1ccccc1 | > 100 µM | > 100 µM | > 100 µM | > 100 µM | > 100 µM | > 100 µM | > 100 µM |  |  |  |  |  |  |  |  |  |  | 
N#Cc1cccc(C2C(=O)c3ccc(C(=O)c4ccc5c(c4)C(=O)N(c4ccc(Oc6ccc(N7C(=O)c8ccc(C(=O)c9ccc%10c(c9)C(=O)N(c9cccc(C#N)c9)C%10=O)cc8C7=O)cc6)cc4)C5=O)cc3C2=O)c1 (stereo not drawn) | > 100 µM | > 100 µM | > 100 µM | > 100 µM | > 100 µM |  | > 100 µM |  |  |  |  |  |  |  |  |  |  | 
Clc1ccccc1C1SCc2nc3ccccc3n21 (stereo not drawn) |  | 56.3 µM | 42.3 µM | > 100 µM | 57.1 µM | 53.6 µM | > 100 µM |  |  |  |  |  |  |  |  |  |  | 
O=C(O)CCC1c2[nH]c3ccccc3c2CCN1Cc1ccccc1 (stereo not drawn) | > 100 µM | > 100 µM | > 100 µM | > 100 µM | > 100 µM | > 100 µM | > 100 µM |  |  |  |  |  |  |  |  |  |  | 
CN1C2(c3ccccc3)C(C(=O)c3ccccc3)=C(C(=O)c3ccccc3)C1(c1ccccc1)c1c(-c3ccccc3)sc(-c3ccccc3)c12 | > 100 µM | > 100 µM | > 100 µM | > 100 µM |  | > 100 µM | > 100 µM |  |  |  |  |  |  |  |  |  |  | 
CC(=O)Nc1ccc(C2=N/C(=C\c3ccc(Cl)cc3)C(=O)O2)cc1 | > 100 µM | > 100 µM | 85.8 µM | > 100 µM | > 100 µM | > 100 µM | > 100 µM |  |  |  |  |  |  |  |  |  |  | 
CCCCOC(=O)c1c(C)[nH]c(/C=C2\N=C(c3ccc[nH]3)C=C2OC)c1C |  | 1.36 µM | 4 µM | 2 µM | 0.381 µM |  | 1.72 µM | 0.65 µM | 12.1 µM | 0.274 µM | 6.37 µM | 0.0412 µM | 0.581 µM | 0.041 µM | 0.056 µM | 0.764 µM | 0.0613 µM | 0.103 µM
